Source: patent publication US11976083B2, “Inhibitors of peptidylarginine deiminases” (Gilead Sciences, Inc., priority 2020, dated 2024)

Molecular target: T1, human PAD4 (Homo sapiens, UniProt Q9UM07)
T1 construct: human PAD4 (NM_012387), A2-P663, was PCR amplified; His-SUMO (N, cleaved yes); made in house; host or cells: E. coli BL21(DE3)
Experiment: In vitro PAD4 BAEE biochemical assay
Conditions: BAEE substrate 3 mM, 5 nM PAD4, 2 mM calcium chloride; geometric mean of multiple experiments
In short: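 Recombinant PAD4 (5 nM final) with 2 mM CaCl2 was preincubated with compound for 30 min at 25 °C in MOPS pH 7.6 buffer with DTT, then reacted with 3 mM BAEE for 2 h at 25 °C. Released ammonia was detected fluorimetrically with o-phthalaldehyde/DTT; IC50 from four-parameter fit, geometric mean of experiments.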

T1 sequence (Q9UM07 2-663): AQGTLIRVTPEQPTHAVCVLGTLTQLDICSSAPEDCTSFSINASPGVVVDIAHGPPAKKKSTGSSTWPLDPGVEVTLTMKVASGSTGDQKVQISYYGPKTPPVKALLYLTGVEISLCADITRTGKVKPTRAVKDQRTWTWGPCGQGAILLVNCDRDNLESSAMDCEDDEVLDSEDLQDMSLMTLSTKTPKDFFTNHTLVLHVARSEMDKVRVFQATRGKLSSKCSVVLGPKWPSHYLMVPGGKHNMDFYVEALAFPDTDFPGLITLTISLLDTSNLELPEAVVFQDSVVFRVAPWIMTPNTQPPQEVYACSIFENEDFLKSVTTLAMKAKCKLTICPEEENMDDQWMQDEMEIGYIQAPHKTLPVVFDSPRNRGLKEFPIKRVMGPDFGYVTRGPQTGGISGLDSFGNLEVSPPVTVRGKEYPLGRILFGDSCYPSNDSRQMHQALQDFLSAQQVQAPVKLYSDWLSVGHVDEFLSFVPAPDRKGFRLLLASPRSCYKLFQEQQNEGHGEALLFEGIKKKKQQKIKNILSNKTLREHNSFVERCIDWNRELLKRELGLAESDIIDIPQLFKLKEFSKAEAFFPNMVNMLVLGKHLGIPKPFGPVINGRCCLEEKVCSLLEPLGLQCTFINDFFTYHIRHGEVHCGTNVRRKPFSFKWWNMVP

| SMILES | IC50 [µM] |
| --- | --- |
| COc1cc(C(=O)N2C[C@H]3CC[C@@H]2[C@@H]3N)cc2nc(-c3cc4ccc5nc4n3CCCCCc3cncc(F)c3C(=O)N[C@@H]5C)n(C)c12 [Example 658, (2~{R})-17-[5-[(1~{R},4~ {R},7~{R})-7-amino-2-azabicyclo[2.2.1]heptane-2-carbonyl]-7-methoxy-1-methyl-benzimidazol-2-yl]-6-fluoro-2-methyl-3,8,16,22-tetrazatetracyclo[14.5.2.0^ {5,10).0^{19,23}] tricosa-1(22),5,7,9,17,19(23), 20-heptaen-4-one] | 0.025 |
| [2H]C([2H])([2H])O[C@@H]1CCN(C(=O)c2cc(OC)c3c(c2)nc(-c2cc4ccc5nc4n2CCCCCc2cncc(F)c2C(=O)N[C@@H]5C)n3C)C[C@@H]1N [Example 659, (2~{R})-17-[5-[(3~{S),4~{R})-3-amino-4-(trideuteriomethoxy)piperidine-1-carbonyl]-7-methoxy-1-methyl-benzimidazol-2-yl]-6-fluoro-2-methyl-3,8,16,22-tetrazatetracyclo[14.5.2.0^ {5,10}.0^{19,23}] tricosa-1(22),5,7,9,17,19(23), 20-heptaen-4-one] | 0.032 |
| COc1cc(C(=O)N2CC[C@@H](O)[C@@H](N)C2)cc2nc(-c3cc4ccc5nc4n3CCCCCc3cncc(F)c3C(=O)N[C@@H]5C)n(C)c12 [Example 660, (2~{R})-17-[5-[(3~{S},4~{R})-3-amino-4-hydroxy-piperidine-1-carbonyl]-7-methoxy-1-methyl-benzimidazol-2-yl]-6-fluoro-2-methyl-3,8,16,22-tetrazatetracyclo[14.5.2.0^ {5,10}.0^{19,23}] tricosa-1(22),5,7,9,17,19(23), 20-heptaen-4-one] | 0.016 |
| CO[C@@H]1CCN(C(=O)c2cc(F)c3c(c2)nc(-c2cc4ccc5nc4n2CCCCCc2cncc(Cl)c2C(=O)N[C@@H]5C)n3C2CC2)C[C@@H]1N [Example 661, (2~{R})-17-[5-[(3~{S),4~ {R})-3-amino-4-methoxy-piperidine-1-carbonyl]-1-cyclopropyl-7-fluoro-benzimidazol-2-yl]-6-chloro-2-methyl-3,8,16,22-tetrazatetracyclo[14.5.2.0^ {5,10).0^{19,23}] tricosa-1(22),5,7,9,17,19(23), 20-heptaen-4-one] | 0.027 |
| CO[C@@H]1CCN(C(=O)c2cc(F)c3c(c2)nc(-c2cc4ccc5nc4n2CCCCCc2cncc(F)c2C(=O)N[C@@H]5C)n3C2CC2)C[C@@H]1N [Example 662, (2~{R})-17-[5-[(3~{S},4~ {R})-3-amino-4-methoxy-piperidine-1-carbonyl]-1-cyclopropyl-7-fluoro-benzimidazol-2-yl]-6-fluoro-2-methyl-3,8,16,22-tetrazatetracyclo[14.5.2.0^ {5,10}.0^{19,23}] tricosa-1(22),5,7,9,17,19(23), 20-heptaen-4-one] | 0.032 |
| COc1cc(C(=O)N2CC[C@@H](OC)[C@@H](N)C2)cc2nc(-c3cc4ccc5nc4n3CCCCCc3ccnc(C4CC4)c3C(=O)N[C@@H]5C)n(C)c12 [Example 663, (2~{R})-17-[5-[(3~{S),4~ {R})-3-amino-4-methoxy-piperidine-1-carbonyl]-7-methoxy-1-methyl-benzimidazol-2-yl]-6-cyclopropyl-2-methyl-3,7,16,22-tetrazatetracyclo[14.5.2.0^ {5,10}.0^{19,23}] tricosa-1(22),5,7,9,17,19(23), 20-heptaen-4-one] | 0.071 |
| COc1cc(C(=O)N2CCC[C@@H](N)[C@H]2C)cc2nc(-c3cc4ccc5nc4n3CCCCCc3ccnc(C4CC4)c3C(=O)N[C@@H]5C)n(C)c12 [Example 664, (2~{R})-17-[5-[(2~{R},3~ {R})-3-amino-2-methyl-piperidine-1-carbonyl]-7-methoxy-1-methyl-benzimidazol-2-yl]-6-cyclopropyl-2-methyl-3,7,16,22-tetrazatetracyclo[14.5.2.0^ {5,10}.0^{19,23}] tricosa-1(22),5,7,9,17,19(23), 20-heptaen-4-one] | 0.051 |
| COc1cc(C(=O)N2C[C@H](N)[C@@H]3CC[C@H]2C3)cc2nc(-c3cc4ccc5nc4n3CCCCCc3cc(Cl)ncc3C(=O)N[C@@H]5C)n(C)c12 [Example 665, (2~{R})-17-[5-[(1~{S),4~{R}, 5~{R})-4-amino-2-azabicyclo[3.2.1]octane-2-carbonyl]-7-methoxy-1-methyl-benzimidazol-2-yl]-8-chloro-2-methyl-3,7,16,22-tetrazatetracyclo[14.5.2.0^ {5,10).0^{19,23}]tricosa-1(22),5(10),6,8,17,19(23),20-heptaen-4-one] | 0.026 |
| COc1cc(C(=O)N2C[C@H]3C[C@@H]2[C@@H]3N)cc2nc(-c3cc4ccc5nc4n3CC(F)(F)CCC[C@@H]3C[C@H]3C(=O)N[C@@H]5C)n(C)c12 [Example 666, (2~{R},5~{R},7~{R})-14-[5-[(1~{R},4~{R},5~{R})-5-amino-2-azabicyclo [2.1.1]hexane-2-carbonyl]-7-methoxy-1-methyl-benzimidazol-2-yl]-11,11-difluoro-2-methyl-3,13,19-triazatetracyclo [11.5.2.0^{5,7}.0^{16,20}] icosa-1(19),14,16(20),17-tetraen-4-one] | 0.086 |
| COc1cc(C(=O)N2C[C@H]3C[C@@H]2[C@@H]3N)cc2nc(-c3cc4ccc5nc4n3CCCCCCC(C)(C)C(=O)N[C@@H]5C)n(C)c12 [Example 667, (11~{R})-17-[5-[(1~{R},4~ {R},5~{R})-5-amino-2-azabicyclo[2.1.1]hexane-2-carbonyl]-7-methoxy-1-methyl-benzimidazol-2-yl]-8,8,11-trimethyl-1,10,19-triazatricyclo[10.5.2.0^ {15,18}]nonadeca-12(19), 13,15(18),16-tetraen-9-one] | 0.07 |
| COc1cc(C(=O)N2C[C@H](N)[C@@H]3CC[C@H]2[C@H]3F)cc2nc(-c3cc4ccc5nc4n3CC(F)(F)CCC[C@@H]3C[C@H]3C(=O)N[C@@H]5C)n(C)c12 [Example 668, (2~{R},5~{R},7~{R})-14-[5-[(1~{S},4~{R},5~ {S},8~{S})-4-amino-8-fluoro-2-azabicyclo [3.2.1]octane-2-carbonyl]-7-methoxy-1-methyl-benzimidazol-2-yl]-11,11-difluoro-2-methyl-3,13,19-triazatetracyclo [11.5.2.0^{5,7}.0^{16,20}] icosa-1(19),14,16(20), 17-tetraen-4-one] | 0.022 |
| C[C@H]1NC(=O)c2ccc(Cl)nc2CCCCCn2c(-c3nc4cc(C(=O)N5C[C@H](N)[C@@H]6CC[C@H]5[C@H]6F)cc(F)c4n3C3CC3)cc3ccc1nc32 [Example 669, (2~{R})-17-[5-[(1~{S}, 4~{R},5~{S},8~{S})-4-amino-8-fluoro-2-azabicyclo[3.2.1]octane-2-carbonyl]-1-cyclopropyl-7-fluoro-benzimidazol-2-yl]-8-chloro-2-methyl-3,9,16,22-tetrazatetracyclo[14.5.2.0^ {5,10).0^{19,23}]tricosa-1(22),5(10),6,8,17,19(23),20-heptaen-4-one] | 0.045 |
| Cc1ccc2c(n1)CCCCCn1c(-c3nc4cc(C(=O)N5C[C@H](N)[C@@H]6CC[C@H]5C6)cc(F)c4n3C3CC3)cc3ccc(nc31)[C@@H](C)NC2=O [Example 670, (2~{R})-17-[5-[(1~{S),4~{R}, 5~{R})-4-amino-2-azabicyclo[3.2.1]octane-2-carbonyl]-1-cyclopropyl-7-fluoro-benzimidazol-2-yl]-2,8-dimethyl-3,9,16,22-tetrazatetracyclo[14.5.2.0^ {5,10).0^{19,23}]tricosa-1(22),5(10),6,8,17,19(23), 20-heptaen-4-one] | 0.006 |
| C[C@H]1NC(=O)c2c(ccnc2C2CC2)CCCCCn2c(-c3nc4cc(C(=O)N5C[C@H](N)[C@@H]6CC[C@H]5C6)cc(F)c4n3C3CC3)cc3ccc1nc32 [Example 671, (2~{R})-17-[5-[(1~{S),4~ {R},5~{R})-4-amino-2-azabicyclo[3.2.1]octane-2-carbonyl]-1-cyclopropyl-7-fluoro-benzimidazol-2-yl]-6-cyclopropyl-2-methyl-3,7,16,22-tetrazatetracyclo [14.5.2.0^{5,10}.0^{19,23}] tricosa-1(22),5(10),6,8,17, 19(23),20-heptaen-4-one] | 0.02 |
| C[C@H]1NC(=O)c2cc(Cl)ncc2CCCCCn2c(-c3nc4cc(C(=O)N5C[C@H](N)[C@@H]6CC[C@H]5C6)cc(F)c4n3C3CC3)cc3ccc1nc32 [Example 672, (2~{R})-17-[5-[(1~{S},4~ {R},5~{R})-4-amino-2-azabicyclo[3.2.1]octane-2-carbonyl]-1-cyclopropyl-7-fluoro-benzimidazol-2-yl]-7-chloro-2-methyl-3,8,16,22-tetrazatetracyclo [14.5.2.0^{5,10}.0^{19,23}] tricosa-1(22),5(10),6,8,17,19 (23),20-heptaen-4-one] | 0.028 |
| COc1cc(C(=O)N2C[C@H](N)[C@@H]3CC[C@H]2C3)cc2nc(-c3cc4ccc5nc4n3CCCCCc3ccccc3C(=O)N[C@@H]5C)n(C3CC3)c12 [Example 673, (2~{R})-17-[5-[(1~{S},4~ {R},5~{R})-4-amino-2-azabicyclo[3.2.1]octane-2-carbonyl]-1-cyclopropyl-7-methoxy-benzimidazol-2-yl]-2-methyl-3,16,22-triazatetracyclo[14.5.2.0^ {5,10}.0^{19,23}] tricosa-1(22),5(10),6,8, 17,19(23),20-heptaen-4-one] | 0.027 |
| C[C@H]1NC(=O)c2cnc(C(F)F)cc2CCCCCn2c(-c3nc4cc(C(=O)N5C[C@H](N)[C@@H]6CC[C@H]5C6)cc(F)c4n3C3CC3)cc3ccc1nc32 [Example 674, (2~{R})-17-[5-[(1~{S},4~ {R},5~{R})-4-amino-2-azabicyclo[3.2.1]octane-2-carbonyl]-1-cyclopropyl-7-fluoro-benzimidazol-2-yl]-8-(difluoromethyl)-2-methyl-3,7,16,22-tetrazatetracyclo[14.5.2.0^ {5,10).0^{19,23}]tricosa-1(22),5(10),6,8,17,19(23), 20-heptaen-4-one] | 0.017 |
